The source of these data is ChEMBL document CHEMBL1671777, “X-ray crystal structure and binding mode analysis of human S-adenosylhomocysteine hydrolase complexed with novel mechanism-based inhibitors, haloneplanocin A analogues” (J Med Chem, 2011).

The target of the assay is Adenosylhomocysteinase (Homo sapiens, UniProt P23526). Kind of assay: Inhibition of human placental AdoHcy hydrolase expressed in Escherichia coli JM109.
Chain of Adenosylhomocysteinase (P23526 whole entry): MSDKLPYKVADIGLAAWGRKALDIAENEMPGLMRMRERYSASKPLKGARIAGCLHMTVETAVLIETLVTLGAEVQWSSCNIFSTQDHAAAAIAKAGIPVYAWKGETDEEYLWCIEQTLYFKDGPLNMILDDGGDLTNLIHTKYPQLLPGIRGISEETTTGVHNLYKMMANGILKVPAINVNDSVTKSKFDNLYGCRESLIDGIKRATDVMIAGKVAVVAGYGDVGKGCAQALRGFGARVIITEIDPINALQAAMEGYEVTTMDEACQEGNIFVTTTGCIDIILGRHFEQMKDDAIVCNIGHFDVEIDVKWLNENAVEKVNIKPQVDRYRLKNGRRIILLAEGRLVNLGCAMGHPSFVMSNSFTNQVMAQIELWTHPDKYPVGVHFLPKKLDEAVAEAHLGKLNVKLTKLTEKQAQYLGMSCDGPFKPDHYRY
Compound `Nc1ncnc2c1ncn2[C@@H]1C(Cl)=C(CO)[C@@H](O)[C@H]1O` had an IC50 of 36.5 µM.

Compound `Nc1ncnc2c1ncn2[C@@H]1C(Br)=C(CO)[C@@H](O)[C@H]1O` showed an IC50 of 60.2 µM.

With `Nc1ncnc2c1ncn2[C@@H]1C(I)=C(CO)[C@@H](O)[C@H]1O`, the IC50 was more than 1000 µM.

In turn, `Nc1ncnc2c1ncn2[C@@H]1C(Cl)=C[C@@H](O)[C@H]1O` registered an IC50 of more than 1000 µM.

As to `Nc1ncnc2c1ncn2[C@@H]1C(Br)=C[C@@H](O)[C@H]1O`, the IC50 was more than 1000 µM.

On to `Nc1ncnc2c1ncn2[C@@H]1C(I)=C[C@@H](O)[C@H]1O`, for which the IC50 was more than 1000 µM.

With `Nc1ncnc2c1ncn2[C@@H]1C=C[C@@H](O)[C@H]1O`, the IC50 was 5.83 µM.

On to `Nc1ncnc2c1ncn2[C@@H]1C(F)=C[C@@H](O)[C@H]1O`, for which the midpoint of inhibition, the IC50, lay at 7.67 µM.

Regarding `Nc1ncnc2c1ncn2[C@@H]1C=C(CO)[C@@H](O)[C@H]1O` [NEOPLANOCIN A], 0.87 µM corresponded to half-maximal inhibition (IC50).

As a reminder, the IC50 is the concentration at which inhibition is half-maximal.
